Assay results reported in patent publication US20240132431A1, “METHOD FOR ALKYLATING ACIDIC FUNCTIONAL GROUP” (Chugai Seiyaku Kabushiki Kaisha, priority 2021, published 2024).

Biological target: T1, Bcl-2 protein (Recombinant Human Bcl-2 Protein) (Homo sapiens, UniProt P10415)
T1 construct: purchased Novus NBP2-34889
Test: Binding evaluation of mixture library compounds to Bcl-2 using AS-MS (affinity selection mass spectrometry)
Settings: for ASMS ratio (%) n = 1: replicate n = 1; for ASMS ratio (%) n = 1 / ASMS ratio (%) n = 2: ASMS Ratio(%)=(A−C)/B×100; for ASMS ratio (%) n = 2: replicate n = 2
Procedure, shortened: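 Affinity selection MS: Bcl-2 20 μM + 1200-cpd mixture, […]/cpd, Tris pH 7.4 buffer w/ Tween-20, DTT; 1 h 23° C dark; P-2 spin SEC; MeCN/MeOH extraction; RP LC/MS. ASMS Ratio(%) = (A−C)/B×100.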

[1] = AS-MS, mixture of 1200 compounds, Bcl-2
[2] = AS-MS on the mixture of 1200 library compounds

T1 sequence (P10415 whole entry): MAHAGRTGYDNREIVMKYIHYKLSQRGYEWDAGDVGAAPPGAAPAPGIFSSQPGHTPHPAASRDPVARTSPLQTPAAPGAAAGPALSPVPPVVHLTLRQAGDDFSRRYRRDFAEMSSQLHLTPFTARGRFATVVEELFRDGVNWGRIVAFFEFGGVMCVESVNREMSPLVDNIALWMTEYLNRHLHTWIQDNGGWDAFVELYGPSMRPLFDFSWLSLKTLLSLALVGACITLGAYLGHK

Compound	ASMS ratio (%) n = 1 (AS-MS, mixture library, Bcl-2) [%]	ASMS ratio (%) n = 2 (AS-MS, mixture library, Bcl-2) [%]	ASMS ratio (%) (n = 1)	ASMS ratio (%) (n = 2)	further results
6-[4-[4-(5-Ethoxypyridin-3-yl)naphthalene-1-carbonyl]piperazin-1-yl]-N-propylpyridazine-3-carboxamide [B1M072-01]					ASMS ratio (%) n = 1 [1]: 0.0%; ASMS ratio (%) n = 2 [1]: 1.9%
CCOc1cccc(-c2ccc(CN3CCN(c4ccc(C(=O)NS(=O)(=O)C(C)(C)C)nn4)CC3)cc2C)c1 [B2L073-01, N-tert-Butylsulfonyl-6-[4-[[4-(3-ethoxyphenyl)-3-methylphenyl]methyl]piperazin-1-yl]pyridazine-3-carboxamide]			0.0	0.0	
CCOc1cccc(C#Cc2ccccc2CN2CCN(c3ccc(C(=O)N(C)CC45CC6CC(CC(C6)C4)C5)nn3)CC2)c1 [B3A095-01, N-(1-Adamantylmethyl)-6-[4-[[2-[2-(3-ethoxyphenyl)ethynyl]phenyl]methyl]piperazin-1-yl]-N-methylpyridazine-3-carboxamide]					ASMS ratio (%) n = 1 [2]: −4.9%; ASMS ratio (%) n = 2 [2]: −3.5%
CCOc1cncc(C#Cc2cc(C(=O)N3CCN(c4ccc(C(=O)NCC56CC7CC(CC(C7)C5)C6)nn4)CC3)cc(C(F)(F)F)c2)c1 [B1A020-01, N-(1-Adamantylmethyl)-6-[4-[3-[2-(5-ethoxypyridin-3-yl)ethynyl]-5-(trifluoromethyl)benzoyl]piperazin-1-yl]pyridazine-3-carboxamide]					ASMS ratio (%) n = 1 [1]: −4.3%; ASMS ratio (%) n = 2 [1]: −10.5%
CCOc1cncc(-c2ccc(CN3CCN(c4ccc(C(=O)NS(=O)(=O)C(C)(C)C)nn4)CC3)cc2F)c1 [B2L078-01]			1.1	−0.7	
CCOc1cncc(-c2cnn(-c3cc(C(=O)N4CCN(c5ccc(C(=O)NS(=O)(=O)CC67CC8CC(CC(C8)C6)C7)cc5)CC4)cc(C(F)(F)F)c3)c2)c1 [B2A044-01, N-(1-Adamantylmethylsulfonyl)-4-[4-[3-[4-(5-ethoxypyridin-3-yl)pyrazol-1-yl]-5-(trifluoromethyl)benzoyl]piperazin-1-yl]benzamide]	0.7	−0.2			
CCOc1cncc(-c2csc(CN3CCN(c4ccc(C(=O)NS(=O)(=O)CCC(F)(F)F)cc4)CC3)c2)c1 [B2N068-01]			0.0	0.5	
CCOc1cncc(-c2cc(C(=O)N3CCN(c4ccc(C(=O)NS(=O)(=O)CC56CC7CC(CC(C7)C5)C6)nn4)CC3)cc(C(F)(F)F)c2)c1 [B2A018-01, N-(1-Adamantylmethylsulfonyl)-6-[4-[3-(5-ethoxypyridin-3-yl)-5-(trifluoromethyl)benzoyl]piperazin-1-yl]pyridazine-3-carboxamide]	5.1	0.0			
CCOc1cccc(-c2cc(CN3CCN(c4ccc(C(=O)Nc5ccc(OC)cc5)nn4)CC3)cc(OC(C)C)c2)c1 [B1O083-01, 6-[4-[[3-(3-Ethoxyphenyl)-5-propan-2-yloxyphenyl]methyl]piperazin-1-yl]-N-(4-methoxyphenyl)pyridazine-3-carboxamide]					ASMS ratio (%) n = 1 [2]: 7.2%; ASMS ratio (%) n = 2 [2]: 1.0%
CCOc1cncc(-c2ccccc2CCC(=O)N2CCN(c3ccc(C(=O)NS(=O)(=O)CCC(F)(F)F)cc3)CC2)c1 [B2N034-01, 4-[4-[3-[2-(5-Ethoxypyridin-3-yl)phenyl]propanoyl]piperazin-1-yl]-N-(3,3,3-trifluoropropylsulfonyl)benzamide]			−0.2	1.0	
CCOc1cccc(-c2cc(CN3CCN(c4ccc(C(=O)Nc5ccc(OC)cc5)cc4)CC3)cc(OCC)c2)c1 [B1O055-01]					ASMS ratio (%) n = 1 [2]: 3.0%; ASMS ratio (%) n = 2 [2]: −4.2%
CCOc1cccc(-c2cc(CN3CCN(c4ccc(C(=O)NS(=O)(=O)C(C)(C)C)nn4)CC3)cc(C(F)(F)F)c2)c1 [B2L087-01, N-tert-Butylsulfonyl-6-[4-[[3-(3-ethoxyphenyl)-5-(trifluoromethyl)phenyl]methyl]piperazin-1-yl]pyridazine-3-carboxamide]			1.9	−24.6	

More lines, main results first:

ASMS ratio (%) n = 1 (AS-MS, mixture library, Bcl-2) [%]	ASMS ratio (%) n = 2 (AS-MS, mixture library, Bcl-2) [%]	ASMS ratio (%) (n = 1)	ASMS ratio (%) (n = 2)	Compound	further results
10.9	−1.5			CCOc1cccc(-c2cc(C(=O)N3CCN(c4ccc(C(=O)NS(=O)(=O)c5ccc(NCCSc6ccccc6)c([N+](=O)[O-])c5)cc4)CC3)cc(C(C)(C)C)c2)c1 [B2Q037-01, 4-[4-[3-tert-Butyl-5-(3-ethoxyphenyl)benzoyl]piperazin-1-yl]-N-[3-nitro-4-(2-phenylsulfanylethylamino)phenyl]sulfonylbenzamide]	
0.0	0.0			CCOc1cncc(-c2ccccc2CCC(=O)N2CCN(c3ccc(C(=O)NS(=O)(=O)c4ccc(NCCSc5ccccc5)c([N+](=O)[O-])c4)cc3)CC2)c1 [B2Q034-01, 4-[4-[3-[2-(5-Ethoxypyridin-3-yl)phenyl]propanoyl]piperazin-1-yl]-N-[3-nitro-4-(2-phenylsulfanylethylamino)phenyl]sulfonylbenzamide]	
		0.0	0.0	CCOc1cncc(-c2ccc(CN3CCN(c4ccc(C(=O)NS(=O)(=O)CCC(F)(F)F)cc4)CC3)c(OC)c2)c1 [B2N054-01, 4-[4-[[4-(5-Ethoxypyridin-3-yl)-2-methoxyphenyl]methyl]piperazin-1-yl]-N-(3,3,3-trifluoropropylsulfonyl)benzamide]	
14.9	0.7			CCOc1cccc(-c2cc(OC)c(CN3CCN(c4ccc(C(=O)NS(=O)(=O)c5ccc(NCCSc6ccccc6)c([N+](=O)[O-])c5)nn4)CC3)c(OC)c2)c1 [B2Q085-01, 6-[4-[[4-(3-Ethoxyphenyl)-2,6-dimethoxyphenyl]methyl]piperazin-1-yl]-N-[3-nitro-4-(2-phenylsulfanylethylamino)phenyl]sulfonylpyridazine-3-carboxamide]	
6.1	5.6			CCOc1cncc(C#Cc2cc(C(=O)N3CCN(c4ccc(C(=O)NS(=O)(=O)c5ccc(NCCSc6ccccc6)c([N+](=O)[O-])c5)nn4)CC3)cc(C(F)(F)F)c2)c1 [B2Q020-01, 6-[4-[3-[2-(5-Ethoxypyridin-3-yl)ethynyl]-5-(trifluoromethyl)benzoyl]piperazin-1-yl]-N-[3-nitro-4-(2-phenylsulfanylethylamino)phenyl]sulfonylpyridazine-3-carboxamide]	
0.0	2.8			CCOc1cccc(-c2cc(OC)c(CN3CCN(c4ccc(C(=O)N(CC)CC)nn4)CC3)c(OC)c2)c1 [B4J085-01, 6-[4-[[4-(3-Ethoxyphenyl)-2,6-dimethoxyphenyl]methyl]piperazin-1-yl]-N,N-diethylpyridazine-3-carboxamide]	
21.3	8.5			CCOc1cncc(-c2cc(CN3CCN(c4ccc(C(=O)NS(=O)(=O)c5ccc(NCCSc6ccccc6)c([N+](=O)[O-])c5)nn4)CC3)cc(OCC)c2)c1 [B2Q082-01, 6-[4-[[3-Ethoxy-5-(5-ethoxypyridin-3-yl)phenyl]methyl]piperazin-1-yl]-N-[3-nitro-4-(2-phenylsulfanylethylamino)phenyl]sulfonylpyridazine-3-carboxamide]	
	0.0			CCOc1cccc(-c2ccc(C(C)N3CCN(c4ccc(C(=O)NS(=O)(=O)c5ccc(NCCSc6ccccc6)c([N+](=O)[O-])c5)cc4)CC3)c(F)c2)c1 (stereo not drawn) [B2Q099-01, 4-[4-[1-[4-(3-Ethoxyphenyl)-2-fluorophenyl]ethyl]piperazin-1-yl]-N-[3-nitro-4-(2-phenylsulfanylethylamino)phenyl]sulfonylbenzamide]	
